Data set [1] in a line: Toxicology: animal weight or overall health. Format: in vivo.
The next data set relates to Memory. Kind of data set: Memory, animal models (Table 2). The following applies: in vivo. Also on record: key: + = positive result or enzyme activation.
The next data set deals with MC-65 cells. Kind of data set: MC65 intracellular amyloid toxicity assay. Format: cell-based. The conditions noted are these: for EC50: MC65; for Protection against intracellular protein aggregation and toxicity: MC-65 cells, tetracycline removal, MTT 5 days later. The protocol: FIG. 4A illustrates the viability of MC-65 cells upon exposure to the indicated concentrations of compounds, and the degree to which synthesis of the C-terminal fragment of APP is induced by the removal of tetracycline. Cell death was determined 5 days later by the MTT assay and confirmed visually. The data are plotted as percent viable, relative to controls of drug plus un-induced cells.

A further data set concerns CREB. The data set can be described thus: CREB phosphorylation. Format: cell-based, mouse. The arrangement: key: + = positive result or enzyme activation. From the text:
CREB activation has been linked to cell survival and accordingly, is considered to be a validated therapeutic target (Vaishnov, et al, Biochem. Biophys. Res. Commun. 307:855-860 (2003)). Similar to the concept of programmed cell death which involves transcription factors pivotal in switching on the nerve cell death program is the transcriptional control of programmed cell life. For example, recent studies of the activation of the CREB transcription factor in stroke models have shown that CREB is phosphorylated (and presumably activated) in neurons that survive this insult.
CREB phosphorylation in response to oxidative stress is evaluated in the presence of invention compounds. Glutamate is added to HT22 cells in the presence or absence of Cmpd CNB-001 (at 1 μM). The ratio of phosphorylated CREB to total CREB is then measured as a function of time. Furthermore, all of the HT22 cells die in the absence of Cmpd CNB-001, and over 90% live in the presence of Cmpd CNB-001.

The subject of data set [2] is Schaffer collateral CA1 pyramidal cell synapses in rat hippocampal slices. The data set can be described thus: LTP induction in hippocampal slices. The arrangement: key to LTP: + = positive result or enzyme activation. The source says: Hippocampal slices were exposed to J147 during the time indicated by the black bar. The field excitatory postsynaptic potential (fEPSP) slope is expressed as the percentage of the value immediately before the addition of J147.
The effect of J147 is dose-dependent. The hippocampal slices were untreated or exposed to J147 for the time indicated by the black bar, and weak tetanic stimulation was applied at time 0. The fEPSP slope is expressed as the percentage of the value immediately before the application of weak tetanic stimulation. FIG. 3B illustrates the time course of changes in the fEPSP slope.
To compare the data among the groups, the averages of the fEPSP slopes 30-60 min after tetanic stimulation were calculated as an index of LTP magnitude; the results are shown in FIG. 3C. All the data are the mean±SEM […] vs none.

Another data set deals with primary cortical neurons. Kind of data set: Trophic factor withdrawal (TFW) assay. Format: cell-based, rat. The following applies: Rattus norvegicus, Primary cortical neuron. The protocol: FIG. 1A illustrates the results of a trophic factor withdrawal assay. Primary cortical neurons are prepared from 18-day-old rat embryos, and cultured at low cell density 1×10^6/35 mm dish, in serum containing medium, with different compounds Viability is then assayed 2 days later using a fluorescent live-dead assay (Molecular Probes).
Primary cortical neurons can be prepared from 18-day-old embryos of Sprague-Dawley rats as described (Liu & Schubert, J. Neurochem., 1997, 69:2285-2293 and J. Neurochem., 1998, 71:2322-2329). Briefly, the cerebral cortex is dissected out under an anatomical microscope and is freed of meninges and blood vessels. The cortex is cut into small pieces and is then dissociated by trypsin digestion and passed through a pipette tip. Dissociated neurons are suspended in various media and plated on polylysine-coated 35 mm tissue culture dishes (e.g., 1×10^6 cells/dish). Several different culture conditions can be used as known in the art. Invention compounds can be added to cell culture dishes. Cell survival can be measured 1-2 days after compound administration.
A serum-containing medium can be used which includes a minimal essential medium (Sigma) containing 30 mM glucose, 2 mM glutamine, 1 mM pyruvate, penicillin (100 U/ml), streptomycin (100 μg/ml), and 10% fetal calf serum. At a plating density of 1×10^6 cells/dish, most neurons die after one week of culture in this medium. If plated at a density of 2×10^6 cells/dish, then most neurons survive. The cell density-dependent neuronal survival in this system is most likely dependent on the neurotrophic factors secreted by the neurons, not by the glia. The results are the same when glial proliferation is inhibited by cytosine arabinoside.
The structure-activity relationships of compounds according to the present invention can be determined by measuring trophic factor withdrawal in […] primary cortical neurons. As shown in FIG. 1A-FIG. 1D, compounds are added to low density primary cultures of E18 rat cortical neurons at the time of plating, and cell survival is determined two days later by a variety of methods.

Another data set has as its system PC12 cells. Kind of data set: Glucose starvation assay. Format: cell-based. Also on record: key: + = positive result or enzyme activation. The following applies: Cell Culture. The protocol: FIG. 1C illustrates the results of a glucose starvation assay. PC12 cells were starved for glucose plus or minus 20 nM J147; cell viability was then determined 48 hr later using the MTT assay (T. Soucek, R. Cumming, R. Dargusch, P. Maher and D. Schubert, Neuron 39 (2003) 43-56).

Another data set relates to Retinal Ganglion Cells. Kind of data set: In vitro ischemia, retinal ganglion cells. Format: cell-based. The arrangement: key: + = positive result or enzyme activation.
[3] abbreviates: Cell Culture, read-out: Amyloid Toxicity, Intracellular.
The mark [4] stands for this setting: Cell Culture (Table 2), read-out: Trophic Factor Withdrawal.

Like-named read-outs stand apart in the source and are kept apart here.

Data on two compounds can be found in patent US8779002B2, “Methods for treating a variety of diseases and conditions, and compounds useful therefor” (Salk Institute for Biological Studies, priority 2007, dated 2014).

As to `COc1cc(/C=C/c2cc(/C=C/c3ccc(O)c(OC)c3)n(-c3ccccc3)n2)ccc1O` [CNB-001], the “Toxicology-no apparent effect on animal weight or overall health” value in data set [1] (several mo. (mice)) is reported as 500 ppm food. Besides, in the data set on Memory, the Memory result was “+” and the “Memory, Animal” value is “+”. The EC50 in the data set on MC-65 cells (setting [3]) came out at 200 nM. For the same compound, the “Protection against intracellular protein aggregation and toxicity” value in the data set on MC-65 cells is on record as “neuroprotective”. The CREB entry in the data set on CREB is given as “+”. Further, the LTP result in data set [2] was “+”. The EC50 with primary cortical neurons (setting [4]) was determined as 500 nM. Also, the “Glucose Starvation” value in the data set with PC12 cells is on record as “+”. Besides, the “In Vitro Ischemia, Retinal Ganglion Cells” value in the data set with Retinal Ganglion Cells is given as “+”.
As to `COc1cccc(/C=N/N(C(=O)C(F)(F)F)c2ccc(C)cc2C)c1` [Compound J147], the “Toxicology-no apparent effect on animal weight or overall health” value in data set [1] (gavage 10 d (mice)) came out at 300 mg/kg. Also, the Memory entry in the data set with Memory was “+”. The “Memory, Animal” value in the data set on Memory is given as “+”. The EC50 in the data set on MC-65 cells (setting [3]) was 3 nM; in the data set with MC-65 cells (Intracellular amyloid toxicity, read-out: MC65 EC50), 10 nM; in the data set with primary cortical neurons (setting [4]), 10 nM; in the data set on primary cortical neurons (Trophic factor withdrawal assay, read-out: TFW EC50) it was 50 nM. Also, the “Protection against intracellular protein aggregation and toxicity” value in the data set on MC-65 cells was “neuroprotective”. Moreover, the CREB entry with CREB was “+”. The LTP entry in data set [2] is “+”. Further, in data set [2] (after a weak tetanic stimulation (15 pulses at 100 Hz), fEPSP slope), the “Induction of LTP” value was “facilitate the induction of LTP”. Further, the Basal synaptic transmission entry in data set [2] (fEPSP slope, J147 1 μM) was “does not affect basal synaptic transmission”. For the same compound, the “Glucose Starvation” value in the data set with PC12 cells is given as “+”. Also, in the data set with Retinal Ganglion Cells, the “In Vitro Ischemia, Retinal Ganglion Cells” value is on record as “+”.
